Data from patent US7504430B2, “Maleiimide anti-tumor phosphatase inhibitors” (The United States of America as represented by the …, priority 2004, dated 2009).
Where two headings read alike, the source gives them in different places.

Legend:
Hep3B cells = assay: Hep3B cell growth inhibition (Hoechst 33258 DNA fluorescence, 3 days of treatment); type: cell-based, human; settings: for Potency at Hep3B cell growth inhibition compared with Cpd5: versus Cpd5 (2-(2-mercaptoethanol)-3-methyl-1,4-naphthoquinone); for Inhibition of Hep3B cell growth: even at 10 μM
Method: Hep3B or JM-1 hepatoma cells were grown in tissue culture in MEM medium supplemented with 10% fetal bovine serum. Cells were plated at a density of 1×104. […] Culture medium was replaced every day with new medium containing the inhibitor. After 3 days of treatment, the cells were rinsed once with PBS and frozen at −80° C. until counting. Frozen cells were thawed and incubated with the DNA-staining dye Hoescht 33258. The cell numbers were determined by measuring the dye-bound DNA fluorescence by a fluorescent plate reader.
(§1) IC50 was determined from the growth inhibition curves.

MCF7 = assay: Tumor cell line growth inhibition, MCF7; type: cell-based; settings: Homo sapiens, 72 h; Breast, MCF7, cultured for 3 days; maximum concentration 20 μmol/L
Method: as §1

SKBR3 = assay: Tumor cell line growth inhibition, SKBR3; type: cell-based; settings: Homo sapiens, SK-BR-3, 72 h; Breast, SKBR3, cultured for 3 days; maximum concentration 20 μmol/L
Method: as §1

FemX = assay: Tumor cell line growth inhibition, FemX; type: cell-based; settings: Homo sapiens, Fem-X, 72 h, Skin, cultured for 3 days, maximum concentration 20 μmol/L
Method: as §1

HR = assay: Tumor cell line growth inhibition, HR; type: cell-based; settings: Homo sapiens, 72 h, Stomach, cultured for 3 days, maximum concentration 20 μmol/L
Method: as §1

PCI = assay: Tumor cell line growth inhibition, PCI; type: cell-based; settings: Homo sapiens, 72 h, Tongue, cultured for 3 days, maximum concentration 20 μmol/L
Method: as §1

LS180 = assay: Tumor cell line growth inhibition, LS180; type: cell-based; settings: Homo sapiens, 72 h; Colon, LS180, cultured for 3 days; maximum concentration 20 μmol/L
Method: as §1

[1] = orally in mice; cited from earlier work
MKP1 = biological target: T1, MKP1 (Homo sapiens, UniProt P28562); assay: Phosphatase inhibition, MKP1; type: biochemical
T1 sequence (P28562 1-367): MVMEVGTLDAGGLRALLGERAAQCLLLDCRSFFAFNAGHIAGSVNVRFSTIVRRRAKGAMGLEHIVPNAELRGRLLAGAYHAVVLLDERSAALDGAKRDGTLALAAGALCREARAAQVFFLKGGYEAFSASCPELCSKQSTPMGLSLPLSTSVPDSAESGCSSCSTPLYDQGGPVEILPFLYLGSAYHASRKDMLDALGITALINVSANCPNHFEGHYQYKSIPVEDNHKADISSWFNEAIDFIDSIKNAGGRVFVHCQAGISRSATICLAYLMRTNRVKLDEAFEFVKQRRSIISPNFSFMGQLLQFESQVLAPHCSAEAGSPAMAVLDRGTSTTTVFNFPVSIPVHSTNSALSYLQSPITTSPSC

PYP1B = biological target: T2, PYP1B (Homo sapiens, UniProt P18031); assay: Phosphatase inhibition, PYP1B; type: biochemical
T2 sequence (P18031 1-435): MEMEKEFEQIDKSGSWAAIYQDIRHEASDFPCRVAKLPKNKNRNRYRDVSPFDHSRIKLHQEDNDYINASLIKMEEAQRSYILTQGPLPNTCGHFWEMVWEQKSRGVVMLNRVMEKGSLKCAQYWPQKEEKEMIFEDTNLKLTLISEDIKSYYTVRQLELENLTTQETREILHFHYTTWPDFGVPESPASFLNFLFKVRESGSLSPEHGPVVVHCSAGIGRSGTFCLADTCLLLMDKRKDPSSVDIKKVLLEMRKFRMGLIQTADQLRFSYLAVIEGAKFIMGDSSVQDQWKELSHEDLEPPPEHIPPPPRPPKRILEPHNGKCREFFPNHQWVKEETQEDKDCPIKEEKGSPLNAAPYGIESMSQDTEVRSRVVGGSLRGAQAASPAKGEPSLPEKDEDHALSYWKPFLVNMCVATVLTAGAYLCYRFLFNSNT

CD45 = biological target: T3, CD45 (Homo sapiens, UniProt P08575); assay: Phosphatase inhibition, CD45; type: biochemical
T3 sequence (P08575 26-1306): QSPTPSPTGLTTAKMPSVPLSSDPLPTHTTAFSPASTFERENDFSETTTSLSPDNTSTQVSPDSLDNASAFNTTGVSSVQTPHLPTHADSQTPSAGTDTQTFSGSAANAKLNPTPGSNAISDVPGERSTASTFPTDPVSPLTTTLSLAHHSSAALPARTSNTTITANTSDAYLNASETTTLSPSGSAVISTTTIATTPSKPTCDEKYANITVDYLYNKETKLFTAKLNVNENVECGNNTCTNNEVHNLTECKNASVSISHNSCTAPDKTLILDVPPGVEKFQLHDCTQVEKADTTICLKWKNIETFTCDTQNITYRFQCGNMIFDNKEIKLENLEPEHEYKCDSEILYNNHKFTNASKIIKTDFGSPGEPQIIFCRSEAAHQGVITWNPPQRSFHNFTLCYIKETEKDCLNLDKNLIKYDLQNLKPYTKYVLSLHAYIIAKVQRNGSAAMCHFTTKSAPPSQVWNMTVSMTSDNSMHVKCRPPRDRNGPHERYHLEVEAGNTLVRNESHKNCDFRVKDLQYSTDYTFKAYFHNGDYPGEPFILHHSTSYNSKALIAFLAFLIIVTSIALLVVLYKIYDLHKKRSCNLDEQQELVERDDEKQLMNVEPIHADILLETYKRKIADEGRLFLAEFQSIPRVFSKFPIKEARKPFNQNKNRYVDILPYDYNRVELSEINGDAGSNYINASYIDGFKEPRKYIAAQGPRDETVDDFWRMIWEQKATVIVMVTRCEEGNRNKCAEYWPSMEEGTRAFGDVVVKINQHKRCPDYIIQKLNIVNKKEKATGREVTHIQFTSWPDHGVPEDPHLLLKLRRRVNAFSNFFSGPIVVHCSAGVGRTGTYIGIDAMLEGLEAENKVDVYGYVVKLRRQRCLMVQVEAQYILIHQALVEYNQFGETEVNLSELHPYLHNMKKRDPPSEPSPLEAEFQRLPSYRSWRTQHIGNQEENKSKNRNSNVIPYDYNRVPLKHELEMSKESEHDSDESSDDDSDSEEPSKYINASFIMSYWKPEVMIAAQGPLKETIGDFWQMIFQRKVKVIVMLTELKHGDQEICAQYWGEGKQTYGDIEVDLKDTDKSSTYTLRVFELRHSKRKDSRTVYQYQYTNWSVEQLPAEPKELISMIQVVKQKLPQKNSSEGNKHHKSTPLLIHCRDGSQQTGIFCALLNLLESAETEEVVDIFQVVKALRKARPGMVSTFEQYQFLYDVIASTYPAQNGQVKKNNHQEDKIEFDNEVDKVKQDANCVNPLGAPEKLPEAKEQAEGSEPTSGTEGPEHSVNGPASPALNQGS

[2] = biological target: T4, catalytic domain of Cdc25B (Homo sapiens, UniProt P30305); assay: Binding to the catalytic domain of Cdc25B
T4 sequence (P30305 431-538 limits assumed): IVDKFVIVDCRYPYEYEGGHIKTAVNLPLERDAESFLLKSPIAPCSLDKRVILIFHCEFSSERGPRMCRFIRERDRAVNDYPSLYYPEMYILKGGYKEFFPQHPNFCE

EGFR and ERK1/2 = assay: Tyrosine phosphorylation of EGFR and ERK1/2; type: cell-based
cell cycle = assay: Cell cycle analysis; type: cell-based; settings: with upregulation of tyrosine phosphorylation of Cdk1, 2 and 4
[3] = system: primary cultures of normal hepatocytes; assay: DNA synthesis in primary cultures of normal hepatocytes versus Hep3B hepatoma cells; type: cell-based
JM-1 rat hepatoma cells = assay: Orthotopic rat tumor model, JM-1 hepatoma cells seeded into livers of F344 rats; type: in vivo; settings: 1 mg/kg intraperitoneal, every other day, 5 injections, control rats averaged 11 tumors per liver
Method: JM-1 rat hepatoma cells were seeded into livers of F344 rats. […] The control rats had on the average 11 tumors per liver, whereas the PM-20-treated rats had 2 tumors per rat.

[4] = Homo sapiens, 72 h, Liver, Hep3B, cultured for 3 days, maximum concentration 20 μmol/L, read-out: IC50
[5] = Homo sapiens, 72 h, Hep3B cells, 3 days of treatment, read-out: IC50, Hep3B cell growth inhibition

Compound: N#CC(=C(/N)Sc1ccccc1N)/C(C#N)=C(\N)Sc1ccccc1N [U0126, reference compound]
- Effect on the growth inhibitory effect of PM-20 (Hep3B cells; MEK1/2 inhibitor given with PM-20, inhibition of ERK1/2 phosphorylation): antagonized the growth inhibitory effect of PM-20

Compound: CCCOc1ccc(N2C(=O)C(SCCO)=C(SCCO)C2=O)cc1 [PM-30, 3,4-Bis-(2-hydroxy-ethylsulfanyl)-1-(4-propoxyphenyl)-pyrrole-2,5-dione]
- Potency at Hep3B cell growth inhibition compared with Cpd5 (Hep3B cells): more potent inhibitors than Cpd5

Compound: O=C1C(SCCO)=C(SCCO)C(=O)N1c1ccc(OCc2ccccc2)cc1 [PM-38, 1-(4-Benzyloxy-phenyl)-3,4-bis-(2-hydroxy-ethylsulfanyl)-pyrrole-2,5-dione]
- Inhibition of Hep3B cell growth (Hep3B cells): did not inhibit

Compound: O=C1C(SCCO)=C(SCCO)C(=O)N1c1ccccc1 [PM-I]
- IC50 (Hep3B cells; Hep3B cells, 3 days of treatment, read-out: IC50, Hep3B cell growth inhibition): 30000 nM

Compound: CCOc1ccc(N2C(=O)C(SCCO)=C(SCCO)C2=O)cc1 [PM-28, 3,4-Bis-(2-hydroxy-ethylsulfanyl)-1-(4-ethoxyphenyl)-pyrrole-2,5-dione]
- Potency at Hep3B cell growth inhibition compared with Cpd5 (Hep3B cells): more potent inhibitors than Cpd5

Compound: CC(=O)Nc1ccc(N2C(=O)C(SCCO)=C(SCCO)C2=O)cc1 [PM-26, N-{4-[3,4-Bis-(2-hydroxy-ethylsulfanyl)-2,5-dioxo-2,5-dihydro-pyrrol-1-yl]-phenyl}-acetamide]
- IC50 (Hep3B cells; [4]): > 20000 nM
- Inhibition of Hep3B cell growth (Hep3B cells): did not inhibit
- IC50 (MCF7): > 20 µM
- IC50 (SKBR3): > 20 µM
- IC50 (FemX): > 20000 nM
- IC50 (HR): > 20 µM
- IC50 (PCI): > 20000 nM
- IC50 (LS180): > 20 µM

Compound: CC1=CC(=O)c2ccccc2C1=O [Vitamin K3]
- LC50 [1]: 0.5 g/kg

Compound: COc1ccc(N2C(=O)C(SCCO)=C(SCCO)C2=O)cc1 [PM-14, 3,4-bisthiolethanol-1-p-methoxyphenyl maleiimide]
- IC50 (Hep3B cells; [5]): 6000 nM

Compound: O=C1C(SCCO)=C(SCCO)C(=O)N1c1ccc(-c2ccccc2)cc1 [PM-20, N-Biphenyl-4-yl-3,4-bis-(2-hydroxy-ethylsulfanyl)-maleimide]
- IC50 (Hep3B cells; [5]): 700 nM
- IC50 (Hep3B cells; [4]): 700 nM
- Potency at Hep3B cell growth inhibition compared with Cpd5 (Hep3B cells): more potent inhibitors than Cpd5
- IC50 (MKP1): 75 µM
- Activity against PYP1B (PYP1B): essentially no activity
- Activity against CD45 (CD45): essentially no activity
- Binding to the catalytic domain of Cdc25B [2]: binds to the catalytic domain of Cdc25B
- Inhibition of de-phosphorylation of ERK 1/2 (EGFR and ERK1/2): potent inhibitor
- Tyrosine phosphorylation of EGFR and ERK1/2 (EGFR and ERK1/2): appear to induce tyrosine phosphorylation
- Cell cycle effect (cell cycle): block, mainly in the G1 phase of cell cycle
- Concentration needed to inhibit DNA synthesis, normal hepatocytes versus Hep3B [3]: 10 fold
- Number of tumors (JM-1 rat hepatoma cells): 2 tumors per rat
- IC50 (MCF7): 4 µM
- IC50 (SKBR3): 6 µM
- IC50 (FemX): 2500 nM
- IC50 (HR): 6 µM
- IC50 (PCI): 2500 nM
- IC50 (LS180): > 20 µM

Compound: O=C1C(SCCO)=C(SCCO)C(=O)N1c1ccc(-c2ccc([N+](=O)[O-])cc2)cc1 [PM-42, 1-(4′-nitro-biphenyl-4-yl)-3,4-bis-(2-hydroxy-ethylsulfanyl)-pyrrole-2,5-dione]
- IC50 (Hep3B cells; [5]): ~100 nM

Compound: O=C1C(SCCO)=C(SCCO)C(=O)N1c1ccc2ccccc2c1 [PM-34, 3,4-Bis-(2-hydroxy-ethylsulfanyl)-1-naphthalen-2-yl-maleimide]
- Potency at Hep3B cell growth inhibition compared with Cpd5 (Hep3B cells): more potent inhibitors than Cpd5
